Laboratory results: patent US20110263668A1, “Beta 3-Adrenoreceptor Agonists for the Treatment of Cardiac Hypertrophy and Heart Failure” (THE JOHNS HOPKINS UNIVERSITY, priority 2009, published 2011)

Test system: β3−/− and WT mice with transverse aortic constriction (TAC)
Assay: Echocardiography in β3−/− and WT mice after TAC with BH4 in the diet
Format: in vivo, mouse
Settings: BH4 200 mg/kg/day in soft diet
Description: Experimental Model. Baseline echocardiography was performed on 8-week, 4-month, and 14-18 month-old homozygous β3^−/− mice (n=57 total, original breeding pairs kindly provided by Dr. Bradford Lowell (Klein et al. (1999)) and age-matched FVB background WT controls (n=13, Jackson Laboratories, Bar Harbor, Me.). Transverse aortic constriction (TAC) was performed on 8-week-old male β3^−/− (n=21) and age-matched male WT controls (n=24) as previously described (Takimoto et al. (2005)). Briefly, after anesthesia with isoflurane (2%), the chest was opened through a small thoracic window between ribs 2 and 4, and a 25 G needle placed on the transverse aorta. This needle size was chosen to elicit a milder response as initial studies using a standard TAC model (27 G needle) led to pulmonary edema and 100% early mortality in β3^−/− mice. The band was secured using a 7.0 prolene suture, the needle was then removed and the chest closed. Twelve animals per strain underwent sham surgery. To measure pressure changes after TAC, pressure volume loops were obtained using a Millar micromanometer catheter as previously described (Barouch et al. (2002)). Animals were sacrificed 3 or 9 weeks after TAC and myocardial tissue preserved in 10% formalin or snap-frozen in liquid nitrogen for subsequent analysis. To determine whether there were any differences in proximal pressures after TAC between strains, a 1.4 F pressure catheter (Millar Instruments, Houston, Tex.) was advanced into the ascending aorta from the LV, and pressures recorded before and after TAC. […] In vivo cardiac geometry and function were serially assessed by transthoracic echocardiography (Acuson Sequoia C256, 13 MHz transducer; Siemens) in conscious mice. M-mode LV end-systolic and end-diastolic cross-sectional diameter (LVESD, LVEDD), and the mean of septal and posterior wall thicknesses were determined from an average of 3-5 cardiac cycles. LV fractional shortening (% FS) and LV mass were determined using a cylindrical model as previously described (Barouch et al. (2003)).

C[C@H](O)[C@H](O)[C@H]1CNc2nc(N)[nH]c(=O)c2N1 [BH4, tetrahydrobiopterin]
change in fractional shortening (WT-TAC/BH4, 3 weeks of TAC): −1.8±3.0%
change in fractional shortening (β3−/− TAC/BH4, 3 weeks of TAC): −0.4±0.2%
increase in calculated LV mass (β3−/− TAC/BH4, 3 weeks of TAC): +15.0±6.8%
